Measurements published in ChEMBL document CHEMBL1157539, “Thousands of chemical starting points for antimalarial lead identification” (Nature, 2010).

Test system: Plasmodium falciparum
Assay: GSK_TCMDC: Inhibition of Plasmodium falciparum 3D7 in whole erythrocytes, using parasite LDH activity as an index of growth.
Type: functional, organism-based
Conditions: Plasmodium falciparum, 3D7

Row | Compound | XC50 [nM]
1 | N#Cc1ccc(-c2cnc3ccc(NCCc4cccnc4)nn23)cc1 | 255
2 | CC(=O)Nc1ccc(CN2CCC(NC(=O)c3cc(-c4ccc(N(C)C)cc4)cs3)C2)cc1 (centres undefined) | 1170
3 | CC(C)C[C@@H](/C=N/NC(N)=O)NC(=O)[C@H](CC(C)C)NC(=O)[C@H](CC(C)C)NC(=O)OCc1ccccc1 | 150
4 | Cc1cc(NC(=O)c2cccs2)ccc1OC1CCN(Cc2ccccc2)CC1 | 874
5 | COc1ccc2ncc(F)c(CCN3CCC(NCc4cc(OC)c5c(c4)OCCO5)CC3)c2n1 | 572
6 | Cc1cnc(NCC2CCCCC2)nc1N[C@@H](CC(C)C)C(=O)Nc1ccccc1 | 869
7 | C=C[C@H]1CN2CC[C@H]1C[C@@H]2[C@@H](O)c1ccnc2ccccc12 [CINCHONINE] | 766
8 | OC1CCN(c2cc(-c3ccccn3)nc(-c3ccccn3)n2)CC1 | 1050
9 | Cc1ccc(-n2nc(C)c3c2NC(=O)CSC3c2ccsc2)cc1 (centres undefined) | 1010
10 | CN(C)c1cc(NC(=O)Nc2ccc(SC(F)(F)F)cc2)c2ccccc2n1 | 140
11 | CC1CN(CCCn2c3ccccc3c3ccc(C(=O)CCCN(C)C)cc32)CC(C)N1 (centres undefined) | 809
12 | O=C(Nc1ccc(-c2ccccc2)cc1)Nc1cccc(Cn2ncc(N3CCCNCC3)c(Cl)c2=O)c1 | 225
13 | CNC(=O)c1cnc(Nc2ccc(N3CCOCC3)cc2)nc1Nc1cccc(OC)c1 | 759
14 | Cc1cccc2nc(-c3cccc(-c4cccc(NC(=O)NCc5ccccc5)c4)c3)[nH]c12 | 521
15 | CC(=O)Nc1ccc(Nc2ncc([N+](=O)[O-])c(Nc3ccccc3C(N)=O)n2)cc1 | 366
16 | O=c1cc(NCCCNCc2ccc(Cl)c(Cl)c2)[nH]c2ccc(C(F)(F)F)cc12 | 524
17 | Cc1cc(N[C@@H](Cc2ccccc2)C(=O)NCc2cccs2)nc(NCCc2ccccn2)n1 | 1280
18 | CCC[C@@H]([C@@H](CC1CCC(C)CC1)C(=O)N[C@@H](CCCCNC(=O)c1ccccn1)C(=O)Nc1nccs1)N(O)C=O (some centres undefined) | 51.3
19 | O=C(Nc1ccc(Br)cc1)N(CCN1CCOCC1)CC(O)COCc1ccc(Cl)c(Cl)c1 (centres undefined) | 929
20 | COc1ccc(-c2ccc(Nc3cccc(S(=O)(=O)CCN4CCC(CCN(C)C)CC4)c3)nc2)cn1 | 1120
21 | Cc1cccc(-c2c(C)nc(N)nc2N)c1 | 1150
22 | c1ccc2c(NCCOCCNc3c4ccccc4nc4ccccc34)c3ccccc3nc2c1 | 878
23 | Cc1cccc2nc(-c3ccc(-c4ccc(NC(=O)Nc5ccc(F)c(F)c5F)cc4)s3)[nH]c12 | 176
24 | CC(=O)c1ccccc1OCCSc1nnc(Cc2cccs2)n1C1CCCCC1 | 919
25 | C=C[C@H]1CN2CC[C@H]1C[C@@H]2[C@@H](O)c1ccnc2ccc(OC)cc12 [QUINIDINE] | 118

Row | Compound | XC50 [nM]
26 | COc1ccc(-c2cc(C(=O)Nc3ccc4[nH]c(-c5ccccc5)nc4c3)[nH]n2)cc1 | 696
27 | COc1cc(O)c2c(=O)c(OC)c(-c3cccc(Cl)c3OC3O[C@H](CO)[C@@H](O)[C@H](O)[C@H]3O)oc2c1OC (some centres undefined) | 774
28 | Cc1c(O)cccc1Nc1ccnc2ccc(C(F)(F)F)cc12 | 31.1
29 | CCN(CC)CCN(Cc1ccc(-c2ccc(C(F)(F)F)cc2)cc1)C(=O)Cn1cc(Cc2cnn(C)c2)c(=O)nc1/C=C/c1cccc(F)c1F | 957
30 | CCCCCCCN1CC[C@@H](CCCc2ccnc3ccc(OCC4CCCNC4)cc23)[C@@H](CC)C1 (some centres undefined) | 625
31 | CC(C)C(=O)NC(c1ccc(Cl)cc1)c1ccc2cccnc2c1O (centres undefined) | 873
32 | C[C@H](Cc1ccc(OCCCCCCOc2ccccc2)cc1)NC[C@@H](O)c1cc(Br)no1 | 883
33 | Cc1cc(=O)oc2c1ccc1oc(C(O)c3ccc(Cl)cc3)c(C)c12 (centres undefined) | 130
34 | COc1ccc(CCNCCCCCCNCCc2ccc(-c3ccccc3)cc2)cc1OC | 958
35 | O=C(Nc1cccc(OC2CCN(Cc3ccc(F)cc3)CC2)c1)c1ccc(C(F)(F)F)cc1 | 952
36 | CCOc1cc(C(=O)NC2CCN(Cc3ccccc3)C2)ccc1-c1nc2cc(Cl)ccc2[nH]1 (centres undefined) | 1010
37 | Cc1ccccc1N1CCN(c2ccc(C(=O)Nc3ccccc3)cn2)CC1 | 587
38 | CS(=O)(=O)c1ccc(CCNCc2ccc(-c3ccc(CN(C(=O)c4ccc(Cl)nc4)C4CCN(Cc5ccccc5)CC4)cc3)nc2)cc1 | 801
39 | O=c1cc(NCCCNCc2cc3ccccc3s2)[nH]c2ccccc12 | 1270
40 | O=C(/C=C/c1ccc(C(F)(F)F)cc1)NCCCCCN1CCCN(C(=O)Nc2ccc(Cl)c(Cl)c2)CC1 | 421
41 | COc1ccc(Nc2nc(NC3CCCC3)cc(-c3ccc(OC)cc3)n2)cc1 | 1030
42 | O=C(CN1CCN(C(C(=O)Nc2cc(C(F)(F)F)ccc2Cl)c2ccccc2)CC1)NC1CC1 (centres undefined) | 443
43 | Cc1ccc(S(=O)(=O)N(CCCN2CCN(C)CC2)Cc2csc(-c3ccc(CNCc4ccccc4)cc3)n2)cc1 | 841
44 | COc1cccc(CCNC(C)Cc2ccc(OCCCCOc3ccccc3)cc2)c1 (centres undefined) | 741
45 | CN1CCN(CCCN(Cc2ccc(-c3cccc(CNCc4ccc5c(c4)OCO5)c3)cc2)C(=O)CCC2CCCC2)CC1 | 1010
46 | CC(C)(C)C1CCc2nc(N)nc(N)c2C1 (centres undefined) | 12.6
47 | CC(C)NCC(O)COc1ccc(Cc2ccc(OCC(O)CNC(C)C)cc2)cc1 (centres undefined) | 654
48 | OCCNc1nc(Nc2ccc(F)cc2)nc2ccccc12 | 164
49 | CCOc1ccc2c(=NN=Cc3ccc(F)cc3)cc(C)[nH]c2c1 | 584
